pIC50: −log10 of the molar value. Where two headings read alike, the source gives them in different places.
Tests used:
endothelial cells = assay: Toxicity to endothelial cells when AGE stimulated; assay type: cell-based, human
Method: Human aortic endothelial cells (HAEC, Clonetics) were cultured according to manufacturer in growth medium (Clonetics): basal medium containing human epidermal growth factor, hydrocortisone, vascular endothelial growth factor, heparin binding growth factor-B, long R3-insulin-like growth factor-1, ascorbic acid, gentamicin/amphotericin and 5% FBS. These cell were allowed to reach at least 90% confluency before subjected to experimental treatments. […] Tumor necrosis factor α was from R&D Systems.
All treatments, compound-added and controls were carried out in serum free media containing 0.2% albumin. Media from all conditions were collected and used for IL-6 ELISA.

IL-6 = assay: TNF-α-induced IL-6 production determined by IL-6 ELISA in HAEC; assay type: cell-based, human; conditions: Homo sapiens, 24 h
HAEC = assay: Toxicity to endothelial cells (HAEC) when TNF stimulated; assay type: cell-based
Method: Human aortic endothelial cells (HAEC, Clonetics) were cultured according to manufacturer in growth medium (Clonetics): basal medium containing human epidermal growth factor, hydrocortisone, vascular endothelial growth factor, heparin binding growth factor-B, long R3-insulin-like growth factor-1, ascorbic acid, gentamicin/amphotericin and 5% FBS. These cell were allowed to reach at least 90% confluency before subjected to experimental treatments. Glycated human serum albumin (G-HSA) was from US Biologicals. Tumor necrosis factor α was from R&D Systems.
[…] All treatments, compound-added and controls were carried out in serum free media containing 0.2% albumin. Media from all conditions were collected and used for IL-6 ELISA.

cells = assay: Cytotoxicity / lactate dehydrogenase assay and visual observation of cells; assay type: cell-based
[1] = tested on: Human aortic smooth muscle cells; assay: Smooth muscle cell proliferation assay (anti-proliferation assay, perlecan); assay type: cell-based; conditions: Homo sapiens, anti-proliferation assay (perlecan)
[2] = read-out: % IL6 production compare to TNF stimulation of IL6 (100%), HAEC, @ 5 uM
[3] = endothelial cells, AGE stimulated
[4] = HAEC, @ 5 uM, read-out: % IL6 production compare to TNF stimulation of IL6 (100%)

Row | SMILES | Toxic (AGE-treated) (endothelial cells) | activity at 5 µM (IL-6; [2]) | some toxicity (HAEC; HAEC, @ 5 uM) | cell death in TNF-stimulated IL6 test (HAEC; human, 24 h, 10 uM) | Starts blunting by (cells) | Toxic by toxicity assay at (cells) | rounding by (cells) | Toxic (AGE-treated) (endothelial cells; [3]) | activity at 5 µM (IL-6; [4]) | cell death in TNF-stimulated IL6 test (HAEC; HAEC, @ 10 uM) | pIC50 ([1]; read-out: Activity (note 1)) | pIC50 ([1]; read-out: Avg IC-50) | cell death in TNF-stimulated IL6 test (HAEC; human, 24 h, 5 uM)
1 | COc1ccc(Nc2nc(Nc3ccc(OC)c(Cl)c3)nc(N(C)C3CCN(C)CC3)n2)cc1Cl [Compound 121] | toxic | 50% | ~20% | total cell death | 1 µM | 0.75 µM | 5 µM | – | – | – | – | – | –
2 | COc1ccc(Nc2nc(NC3CCCCCC3)nc(NC3CCN(Cc4ccccc4)CC3)n2)cc1Cl [Compound 134, N-(1-benzyl-piperidin-4-yl)-N′-(3-chloro-4-methoxy-phenyl)-N″-cycloheptyl-[1,3,5]-2,4,6-triamine] | – | – | – | – | – | – | – | toxic | 55% | total cell death | – | – | –
3 | COc1ccc(Nc2nc(NC3CCCCCC3)nc(NC3CCNCC3)n2)cc1Cl [Compound 135, N^2-(3-chloro-4-methoxy-phenyl)-N^4-cycloheptyl-N^6-piperidin-4-yl-1,3,5-triazine-2,4,6-triamine] | – | – | – | – | – | – | – | toxic | 60% | total cell death | 5.15 to 5.52 | 5.23 | –
4 | CN1CCC(N(C)c2nc(Nc3ccc(O)c(Cl)c3)nc(NC3CCCCCC3)n2)CC1 [Compound 138] | toxic | – | – | – | – | – | – | – | – | – | 5.15 to 5.52 | 5.39 | –
5 | CCN1CCCC1CNc1nc(Nc2ccc(OC)c(Cl)c2)nc(NC2CN3CCC2CC3)n1 (stereo not shown) [Compound 148] | toxic | 60% | – | total cell death | – | – | – | – | – | – | 5.15 to 5.52 | > 5.30 | –
6 | COc1ccc(Nc2nc(NC3CCCCCC3)nc(N(C)C3CCNCC3)n2)cc1F [Compound 159, N^2-Cycloheptyl-N^4-(3-fluoro-4-methoxy-phenyl)-N^6-methyl-N^6piperidin-4-yl-1,3,5-triazine-2,4,6-triamine] | toxic | – | – | total cell death @ 5 and10 uM | – | – | – | – | – | – | 5.15 to 5.52 | 5.16 to 5.24 | total cell death @ 5 and10 uM
